From patent publication US12655130B2 (ASSEMBLY BIOSCIENCES, INC., priority 2020, dated 2026)

test system: HBV viral load (viral production from HepAD38 cells); test: Activity of test compounds on viral production from HepAD38 cells (viral load by qPCR of HBV core sequence); assay type: cell-based; settings: Hepatitis B virus, HePAD38, 120 h, viral load lowering, 5 days, qPCR of supernatant, read-out: VL HepAD38 EC50 range
In short: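 HepAD38 cells seeded at 50,000/well in tetracycline-free medium with 2% FBS, treated 5 days at 37 °C with compounds from 10 μM top concentration. Supernatant HBV DNA quantified by TaqMan qPCR of core sequence against HBV DNA standards, relative to DMSO wells; viability by CellTiter-Glo; EC50/CC50 by four-parameter logistic fit.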

SMILES | EC50 [nM]
Cc1cc(C2(O)CC3CC(c4ncn(C)c4C(=O)Nc4ccc(F)c(Cl)c4)CC3C2)[nH]n1 (centres unmarked) [Example 144, N-(3-Chloro-4-fluorophenyl)-4-(5-hydroxy-5-(3-methyl-1H-pyrazol-5-yl)octahydropentalen-2-yl)-1-methyl-1H-imidazole-5-carboxamide] | < 10
Cn1cc(C2(O)CC3CC(c4ncn(C)c4C(=O)Nc4ccc(F)c(Cl)c4)CC3C2)c(F)n1 (centres unmarked) [Example 175, N-(3-Chloro-4-fluorophenyl)-4-(5-(3-fluoro-1-methyl-1H-pyrazol-4-yl)-5-hydroxyoctahydropentalen-2-yl)-1-methyl-1H-imidazole-5-carboxamide] | < 10
Cn1cnc(C2CC3CC(O)(CS(=O)(=O)c4ccc(F)cc4)CC3C2)c1C(=O)Nc1ccc(F)c(Cl)c1 (centres unmarked) [Example 11, N-(3-Chloro-4-fluorophenyl)-4-(5-(((4-fluorophenyl)sulfonyl)methyl)-5-hydroxyoctahydropentalen-2-yl)-1-methyl-1H-imidazole-5-carboxamide] | 10 to 50
Cn1cc(Br)c(C2(O)CC3CC(c4ncn(C)c4C(=O)Nc4ccc(F)c(Cl)c4)CC3C2)n1 (centres unmarked) [Example 117, 4-(5-(4-bromo-1-methyl-1H-pyrazol-3-yl)-5-hydroxyoctahydropentalen-2-yl)-N-(3-chloro-4-fluorophenyl)-1-methyl-1H-imidazole-5-carboxamide] | < 10
CC(N)c1nn(C)cc1C1(O)CC2CC(c3ncn(C)c3C(=O)Nc3ccc(F)c(Cl)c3)CC2C1 (centres unmarked) [Example 184, 4-(5-(3-(1-Aminoethyl)-1-methyl-1H-pyrazol-4-yl)-5-hydroxyoctahydropentalen-2-yl)-N-(3-chloro-4-fluorophenyl)-1-methyl-1H-imidazole-5-carboxamide] | < 10
Cn1cnc(C2CC3CC(O)(c4cc(NCC(C)(C)O)nn4C)CC3C2)c1C(=O)Nc1ccc(F)c(Cl)c1 (centres unmarked) [Example 214, N-(3-Chloro-4-fluorophenyl)-4-(5-hydroxy-5-(3-((2-hydroxy-2-methylpropyl)amino)-1-methyl-1H-pyrazol-5-yl)octahydropentalen-2-yl)-1-methyl-1H-imidazole-5-carboxamide] | < 10
Cn1cnc(C2CC3CC(=O)CC3C2)c1C(=O)Nc1ccc(F)c(Cl)c1 (single isomer, unassigned) [Example 1, N-(3-Chloro-4-fluorophenyl)-1-methyl-4-(5-oxooctahydropentalen-2-yl)-1H-imidazole-5-carboxamide] | < 10
Cn1cnc(C2CC3CC(O)(c4ccnn4C)CC3C2)c1C(=O)Nc1ccc(F)c(Cl)c1 (centres unmarked) [Example 10, N-(3-chloro-4-fluorophenyl)-4-(5-hydroxy-5-(1-methyl-1H-pyrazol-5-yl)octahydropentalen-2-yl)-1-methyl-1H-imidazole-5-carboxamide] | < 10
Cc1cnn(C)c1C1(O)CC2CC(c3ncn(C)c3C(=O)Nc3ccc(F)c(Cl)c3)CC2C1 (centres unmarked) [Example 131, N-(3-chloro-4-fluorophenyl)-4-(5-(1,4-dimethyl-1H-pyrazol-5-yl)-5-hydroxyoctahydropentalen-2-yl)-1-methyl-1H-imidazole-5-carboxamide] | < 10
CS(=O)(=O)CC1(O)CC2CC(c3nc4n(c3C(=O)Nc3ccc(F)c(Cl)c3)CCC4)CC2C1 (single isomer, unassigned) [Example 35, N-(3-Chloro-4-fluorophenyl)-2-(5-hydroxy-5-((methylsulfonyl)methyl)octahydropentalen-2-yl)-6,7-dihydro-5H-pyrrolo[1,2-a]imidazole-3-carboxamide] | < 10
CC(=O)N1CCn2c(nc(C3CC4CC(O)CC4C3)c2C(=O)Nc2ccc(F)c(Cl)c2)C1 (centres unmarked) [Example 87, 7-acetyl-N-(3-chloro-4-fluorophenyl)-2-(5-hydroxyoctahydropentalen-2-yl)-5,6,7,8-tetrahydroimidazo[1,2-a]pyrazine-3-carboxamide] | < 10
